# According to publication PMC3625590, “NBM-T-L-BMX-OS01, Semisynthesized from Osthole, Is a Novel Inhibitor of Histone Deacetylase and Enhances Learning and Memory in Rats” (Evidence-based Complementary and Alternative Medicine : eCAM, 2013):
# Tests used:
# [1] = system: HEK293T cells; experiment: CRE promoter-luciferase assay; assay type: cell-based
# Method: Supplemental Materials and Methods
# 2.1. HEK293T cells. HEK293T cells were maintained in Dulbecco’s modified Eagle’s medium (Invitrogen) supplemented with 10% fetal calf serum (Invitrogen). Cultures were maintained in a humidified 5% CO2-95% air atmosphere at 37°C.
# 2.2. Immunocytochemistry. Cultured hippocampal neurons were fixed with 4% paraformaldehyde for 15 min and permeablized with 0.1% Triton X-100 for 20 min at room temperature (RT). The primary Mouse anti-β III tubulin and anti-actin (Millipore) Abs were added for 1 h at RT. After wash, Alexa Fluor 488 […] Ab (Molecular Probes, Europe BV, Leiden, Netherlands) were incubated with cells for 1 h at RT. Coverslips were mounted, and images were obtained by using a Axio Observer D1 microscope (Zeiss, Jena, Germany). Neuronal process longer than […] is defined as neurites.
# 2.3. Western blot. […]
# The lysate was resolved by 8% SDS-PAGE. […] The protein bands were quantified using the NIH Image J Software. […]
# FBS. […] The activity of firefly luciferase was measured as firefly luciferase luminescence after reaction with luciferase reagent for 15 min. Next, the activity of Renilla luciferase is measured as Renilla luciferase luminescence after reaction with Stop & Glo reagent for 15 min.
# The ratio of firefly luciferase activity to Renilla luciferase activity was calculated and normalized to vector control.
# [2] = target: T1, HDAC8 (Homo sapiens, UniProt Q9BY41); conditions: cited from earlier work
# T1 sequence (Q9BY41 1-377): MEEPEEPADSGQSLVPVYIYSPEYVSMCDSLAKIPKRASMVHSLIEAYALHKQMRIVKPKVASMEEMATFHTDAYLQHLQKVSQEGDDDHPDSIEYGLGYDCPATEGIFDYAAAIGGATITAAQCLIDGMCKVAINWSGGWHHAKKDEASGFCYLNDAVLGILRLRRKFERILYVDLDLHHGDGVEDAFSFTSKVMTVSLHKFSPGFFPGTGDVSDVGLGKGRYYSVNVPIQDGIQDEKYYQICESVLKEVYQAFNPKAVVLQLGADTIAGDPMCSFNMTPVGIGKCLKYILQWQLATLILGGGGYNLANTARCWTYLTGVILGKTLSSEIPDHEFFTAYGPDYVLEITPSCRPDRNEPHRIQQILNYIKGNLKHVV
# [3] = system: Sco-induced amnesia rats; experiment: Water-maze learning, Sco-induced memory impairment; assay type: in vivo, Sprague-Dawley rats; conditions: Sco 1.5 mg/kg/d; BMX or SAHA 5 mg/kg/d i.p.
# Method: SAHA was supplied by NatureWise Biotech and Medicals Corporation (Taipei, Taiwan). […] (St. Louis, MO, USA). The BMX and SAHA stock (100 mg/mL) was dissolved in DMSO and diluted with saline to a final concentration of 0.5 mg/mL (in 0.5% DMSO/saline). […] SD rats were randomly divided into 3 groups. For the naïve animal experiments, the BMX-injected or SAHA-injected groups were injected with BMX (5 mg/kg/d) or SAHA (5 mg/kg/d) intraperitoneally 7 d prior to behavioral experiments and during the experimentation. The control group received the 0.5% DMSO/saline injection. The injection volume was 10 μL/g of body weight. The injections were performed once per day. For the amnesia experiment, the protocol was adopted from previous studies with modifications. […] The control group received the 0.5% DMSO/saline injection. The injection volume was 10 μL/g of body weight. […] The method was adopted from that of a previous study with modifications. A plastic circular pool 2.0 m in diameter and 0.6 m in height was filled with water (25 ± 2°C) to a depth of 20 cm. A circular platform (8 cm in diameter) was placed at a specific location from the edge of the pool and submerged 2-3 cm below the water surface. Water was made cloudy by adding toxic-free dye. Distinctive visual cues were set on the wall. For spatial learning, animals were subjected to 3 trials per day, with one trial early in the morning, one trial at noon, and another in the late afternoon. The training procedure lasted 4 days, and a total of 12 trials were given. This procedure was adopted because spaced training is a better paradigm to facilitate memory consolidation. For these trials, the rats were positioned at different starting points spaced equally around the perimeter of the pool in random order. They had 120 s to find the hidden platform. If a rat could not find the platform, it was guided to the platform and was allowed to remain there for 20 s. The time each animal took to reach the platform was recorded as the escape latency. A probe trial of 120 s was given on day 5 to test their memory retention. The rats were placed in the pool with the platform removed, and the time they spent in each quadrant (Quadrants 1, 2, 3, and 4) was recorded. Quadrant 4 is the target quadrant. For the trained and swimming control experiments, rats in the trained group were subjected to the regular water maze learning procedure. At the end of the experiment, the rats were subjected to visible platform learning. For visible platform learning, a flag was mounted on the platform, and the platform was raised 2.5 cm above the surface of the water. In addition, the dye had not been added, so that the animals could see the location of the platform from the water. […]
structure (smiles),measurement,setting,value
"O=C(CCCCCCC(=O)Nc1ccccc1)NO [SAHA, suberoylanilide hydroxamic acid, reference compound]",CRE-mediated promoter activity,[1],increased
same,inhibition of HDAC8 deacetylase activity,[2],little inhibition of HDAC8
same,escape latency in finding the hidden platform,[3],attenuates Sco-induced longer escape latency
same,"probe trial, time spent in target quadrant",[3],spent more time in the target quadrant
